ChEMBL document CHEMBL3286303, “Synthesis and in vitro antiproliferative evaluation of novel N-alkylated 6-isobutyl- and propyl pyrimidine derivatives” (Bioorg Med Chem Lett, 2014)

Legend:
[1] = system: SW-620; test: Cell cycle arrest in human SW620 cells as assessed as accumulation at S phase at 1 uM after 48 hrs by propidium iodide staining-based flow cytometric analysis relative to control; type: functional
[2] = system: K562; test: Cell cycle arrest in human K562 cells as assessed as accumulation at sub-G1 phase at 0.5 uM after 48 hrs by propidium iodide staining-based flow cytometric analysis relative to control; type: functional
[3] = system: MCF7; test: Cell cycle arrest in human MCF7 cells as assessed as accumulation at G1 phase at 0.1 uM after 24 hrs by propidium iodide staining-based flow cytometric analysis relative to control; type: functional
[4] = system: MCF7; test: Cell cycle arrest in human MCF7 cells as assessed as accumulation at sub-G1 phase at 1 uM after 48 hrs by propidium iodide staining-based flow cytometric analysis relative to control; type: functional
[5] = system: K562; test: Cell cycle arrest in human K562 cells as assessed as accumulation at sub-G1 phase at 0.1 uM after 24 hrs by propidium iodide staining-based flow cytometric analysis relative to control; type: functional
[6] = system: WI-38; test: Cell cycle arrest in human WI38 cells as assessed as accumulation at S phase at 1 uM after 24 hrs by propidium iodide staining-based flow cytometric analysis relative to control; conditions: wi-38, 24 h
[7] = system: K562; test: Cell cycle arrest in human K562 cells as assessed as accumulation at S phase at 0.1 uM after 48 hrs by propidium iodide staining-based flow cytometric analysis relative to control; type: functional
[8] = system: MCF7; test: Cell cycle arrest in human MCF7 cells as assessed as accumulation at G2/M phase at 0.1 uM after 48 hrs by propidium iodide staining-based flow cytometric analysis relative to control; type: functional
[9] = system: K562; test: Cell cycle arrest in human K562 cells as assessed as accumulation at G2/M phase at 1 uM after 48 hrs by propidium iodide staining-based flow cytometric analysis relative to control; type: functional
[10] = system: K562; test: Cell cycle arrest in human K562 cells as assessed as accumulation at G1 phase at 0.1 uM after 24 hrs by propidium iodide staining-based flow cytometric analysis relative to control; type: functional

- Activity [6]: 2.4%
SMILES: COCn1c(CC(COCc2ccccc2)COCc2ccccc2)c(C)c(=O)n(COC)c1=O
- Activity [1]: 22%
- Activity [2]: 15%
- Activity [3]: 25.5%
- Activity [4]: 78.9%
- Activity [5]: 2.2%
- Activity [7]: 24.1%
- Activity [8]: 9.5%
- Activity [9]: 17.4%
- Activity [10]: 48.4%
